Results as given in patent US20160333419A1, “GENE SIGNATURES ASSOCIATED WITH SENSITIVITY TO MDM2 INHIBITORS” (DAIICHI SANKYO COMPANY, LIMITED, priority 2014, published 2016).
pIC50: −log10 of the molar value.

Experiments:
Experiment in all cases: OncoPanel cytotoxicity assay
Format in all cases: cell-based
5637 = settings: Homo sapiens, 72 hour incubation
Experimental: (§1) Cells were grown in RPMI 1640, 10% FBS, 2 mM L-alanyl-L-Glutamine, 1 mM Na Pyruvate, or a special medium in a humidified atmosphere of 5% CO2 at 37° C. Cells were seeded into 384-well plates and incubated in a humidified atmosphere of 5% CO2 at 37° C. Test compounds were added 24 hours post cell seeding. At the same time, a time zero, untreated cell plate was generated as a control. After a 72 hour incubation period, cells were fixed and stained with nuclear dye to allow visualization of nuclei.
(§2) Compounds were serially diluted 3.16-fold and assayed over 10 concentrations of inhibitor in a final assay concentration of 0.1% DMSO from the highest test concentration specified in the sample information chapter. Automated fluorescence microscopy was carried out using a GE Healthcare InCell Analyzer 1000, and images were collected with a 4× objective. Twelve bit tiff images were acquired using the InCell Analyzer 1000 3.2 and analyzed with Developer Toolbox 1.6 software.
(§3) Cell proliferation was measured by the signal intensity of the incorporated nuclear dye. The cell proliferation assay output is referred to as the relative cell count. To determine the cell proliferation end point, the cell proliferation data output is transformed to percent of control (POC) using the following formula: […]
(§4) Relative cell count IC50 (IC50) is the test compound's concentration that produces 50% of the cell proliferation inhibitory response or 50% cytotoxicity level. IC50 values were calculated using nonlinear regression to fit data to a sigmoidal 4 point, 4 parameter One-Site dose response model, where: y (fit)=A+[(B−A)/(1+((C/x)̂D))]. Curve-fitting, IC50 calculations and report generation were performed using a custom data reduction engine MathIQ based software (AIM). […] In these cases, the IC50 values were expressed as 40 μM and 10 μM, respectively (Table 2).

A172 = settings: Homo sapiens, A 172, 72 hour incubation
Experimental: as §1, §2, §3, §4

A427 = settings: Homo sapiens, A-427, 72 hour incubation
Experimental: as §1, §2, §3, §4

A7 = settings: Homo sapiens, 72 hour incubation
Experimental: as §1, §2, §3, §4

AGS = settings: Homo sapiens, 72 hour incubation
Experimental: as §1, §2, §3, §4

BE(2)C = settings: Homo sapiens, 72 hour incubation
Experimental: as §1, §2, §3, §4

BT-549 = settings: Homo sapiens, 72 hour incubation
Experimental: as §1, §2, §3, §4

BT474 = settings: Homo sapiens, BT-474, 72 hour incubation
Experimental: as §1, §2, §3, §4

C32 = settings: Homo sapiens, 72 hour incubation
Experimental: as §1, §2, §3, §4

CCF-STTG1 = settings: Homo sapiens, 72 hour incubation
Experimental: as §1, §2, §3, §4

CFPAC-1 = settings: Homo sapiens, 72 hour incubation
Experimental: as §1, §2, §3, §4

Colo 205 = settings: Homo sapiens, 72 hour incubation
Experimental: as §1, §2, §3, §4

Colo 320DM = settings: Homo sapiens, 72 hour incubation
Experimental: as §1, §2, §3, §4

DK-MG = settings: Homo sapiens, 72 hour incubation
Experimental: as §1, §2, §3, §4

DMS114 = settings: Homo sapiens, DMS-114, 72 hour incubation
Experimental: as §1, §2, §3, §4

Daoy = settings: Homo sapiens, 72 hour incubation
Experimental: as §1, §2, §3, §4

Daudi = settings: Homo sapiens, 72 hour incubation
Experimental: as §1, §2, §3, §4

Detroit 562 = settings: Homo sapiens, 72 hour incubation
Experimental: as §1, §2, §3, §4

HCT-8 = settings: Homo sapiens, 72 hour incubation
Experimental: as §1, §2, §3, §4

HEC-1-A = settings: Homo sapiens, 72 hour incubation
Experimental: as §1, §2, §3, §4

HPAF-II = settings: Homo sapiens, 72 hour incubation
Experimental: as §1, §2, §3, §4

HS 746T = settings: Homo sapiens, Hs746T, 72 hour incubation
Experimental: as §1, §2, §3, §4

KLE = settings: Homo sapiens, 72 hour incubation
Experimental: as §1, §2, §3, §4

LNCaP = settings: Homo sapiens, 72 hour incubation
Experimental: as §1, §2, §3, §4

MC-IXC = settings: Homo sapiens, 72 hour incubation
Experimental: as §1, §2, §3, §4

MDA MB 468 = settings: Homo sapiens, 72 hour incubation
Experimental: as §1, §2, §3, §4

OCUG-1 = settings: Homo sapiens, 72 hour incubation
Experimental: as §1, §2, §3, §4

PC-3 = settings: Homo sapiens, 72 hour incubation
Experimental: as §1, §2, §3, §4

SCC-9 = settings: Homo sapiens, 72 hour incubation
Experimental: as §1, §2, §3, §4

SNU-16 = settings: Homo sapiens, 72 hour incubation
Experimental: as §1, §2, §3, §4

SW-13 = settings: Homo sapiens, SW13, 72 hour incubation
Experimental: as §1, §2, §3, §4

SW1783 = settings: Homo sapiens, 72 hour incubation
Experimental: as §1, §2, §3, §4

SW962 = settings: Homo sapiens, SW 962, 72 hour incubation
Experimental: as §1, §2, §3, §4

SW982 = settings: Homo sapiens, 72 hour incubation
Experimental: as §1, §2, §3, §4

T47D = settings: Homo sapiens, 72 hour incubation
Experimental: as §1, §2, §3, §4

TCCSUP = settings: Homo sapiens, TCC-SUP, 72 hour incubation
Experimental: as §1, §2, §3, §4

Thp1 = settings: Homo sapiens, THP-1, 72 hour incubation
Experimental: as §1, §2, §3, §4

Wi38 = settings: Homo sapiens, WI-38, 72 hour incubation
Experimental: as §1, §2, §3, §4

YAPC = settings: Homo sapiens, 72 hour incubation
Experimental: as §1, §2, §3, §4

Q: With `CC[C@@H]1CNC2(CC2)CN1C(=O)[C@@H]1C[C@@H](F)CN1C(=O)C1=C(C(C)C)N2C(=N[C@@](C)(c3ccc(Cl)nc3)[C@H]2c2ccc(Cl)c(F)c2)S1` [Compound A, [(5R,6S)-5-(4-Chloro-3-fluorophenyl)-6-(6-chloropyridin-3-yl)-6-methyl-3-(propan-2-yl)-5,6-dihydroimidazo[2,1-b][1,3]thiazol-2-yl][(2S,4R)-2-{[(6R)-6-ethyl-4,7-diazaspiro[2.5]oct-7-yl]carbonyl}-4-fluoropyrrolidin-1-yl]methanone] as the compound, how does the pIC50 5637 read?
A: The pIC50 was < 4.40.

Q: What about the pIC50 (A172) of the same compound?
A: The pIC50 was 6.10.

Q: And the pIC50 (A427)?
A: The pIC50 was 5.78.

Q: What about the pIC50 (A7) of the same compound?
A: Its pIC50 is < 4.40.

Q: What about the pIC50 (AGS) of the same compound?
A: Its pIC50 is 6.86.

Q: And the pIC50 (BE(2)C)?
A: The pIC50 was 4.45.

Q: What about the pIC50 (BT-549) of the same compound?
A: The pIC50 was < 4.40.

Q: And the pIC50 (BT474)?
A: The pIC50 was < 4.40.

Q: And the pIC50 (C32)?
A: The pIC50 was < 4.40.

Q: And the pIC50 (CCF-STTG1)?
A: Its pIC50 is 6.27.

Q: And the pIC50 (CFPAC-1)?
A: The pIC50 was < 4.40.

Q: What about the pIC50 (Colo 205) of the same compound?
A: Its pIC50 is 4.44.

Q: What about the pIC50 (Colo 320DM) of the same compound?
A: Its pIC50 is < 4.40.

Q: What about the pIC50 (DK-MG) of the same compound?
A: Its pIC50 is 6.19.

Q: What about the pIC50 (DMS114) of the same compound?
A: The pIC50 was < 4.40.

Q: And the pIC50 (Daoy)?
A: Its pIC50 is < 4.40.

Q: And the pIC50 (Daudi)?
A: The pIC50 was 6.22.

Q: What about the pIC50 (Detroit 562) of the same compound?
A: The pIC50 was < 4.40.

Q: What about the pIC50 (HCT-8) of the same compound?
A: The pIC50 was 6.30.

Q: What about the pIC50 (HEC-1-A) of the same compound?
A: The pIC50 was < 4.40.

Q: What about the pIC50 (HPAF-II) of the same compound?
A: The pIC50 was < 4.40.

Q: And the pIC50 (HS 746T)?
A: The pIC50 was 4.41.

Q: What about the pIC50 (KLE) of the same compound?
A: Its pIC50 is < 4.40.

Q: What about the pIC50 (LNCaP) of the same compound?
A: Its pIC50 is 6.57.

Q: And the pIC50 (MC-IXC)?
A: The pIC50 was 4.64.

Q: And the pIC50 (MDA MB 468)?
A: The pIC50 was 4.44.

Q: What about the pIC50 (OCUG-1) of the same compound?
A: The pIC50 was < 4.40.

Q: What about the pIC50 (PC-3) of the same compound?
A: The pIC50 was < 4.40.

Q: What about the pIC50 (SCC-9) of the same compound?
A: Its pIC50 is < 4.40.

Q: And the pIC50 (SNU-16)?
A: The pIC50 was 4.55.

Q: And the pIC50 (SW-13)?
A: Its pIC50 is 5.08.

Q: What about the pIC50 (SW1783) of the same compound?
A: Its pIC50 is < 4.40.

Q: And the pIC50 (SW962)?
A: Its pIC50 is < 4.40.

Q: What about the pIC50 (SW982) of the same compound?
A: Its pIC50 is 6.63.

Q: What about the pIC50 (T47D) of the same compound?
A: Its pIC50 is 4.49.

Q: What about the pIC50 (TCCSUP) of the same compound?
A: Its pIC50 is < 4.40.

Q: What about the pIC50 (Thp1) of the same compound?
A: Its pIC50 is < 4.40.

Q: What about the pIC50 (Wi38) of the same compound?
A: Its pIC50 is 6.77.

Q: What about the pIC50 (YAPC) of the same compound?
A: The pIC50 was < 4.40.

Q: With `CC1(C)CCC2(CC1)N[C@@H](C(=O)N[C@@H]1CC[C@@H](C(N)=O)OC1)[C@H](c1ccnc(Cl)c1F)[C@]21C(=O)Nc2cc(Cl)ccc21` [Compound B, (3′R,4′S,5′R)—N-[(3R,6S)-6-carbamoyltetrahydro-2H-pyran-3-yl]-6″-chloro-4′-(2-chloro-3-fluoropyridin-4-yl)-4,4-dimethyl-2″-oxo-1″,2″-dihydrodispiro[cyclohexane-1,2′-pyrrolidine-3′,3″-indole]-5′-carboxamide] as the compound, how does the pIC50 5637 read?
A: Its pIC50 is < 5.00.

Q: What about the pIC50 (A172) of the same compound?
A: Its pIC50 is 7.16.

Q: And the pIC50 (A427)?
A: The pIC50 was 6.84.

Q: What about the pIC50 (A7) of the same compound?
A: Its pIC50 is 5.44.

Q: What about the pIC50 (AGS) of the same compound?
A: The pIC50 was 7.94.

Q: And the pIC50 (BE(2)C)?
A: Its pIC50 is 5.04.

Q: And the pIC50 (BT-549)?
A: The pIC50 was < 5.00.

Q: And the pIC50 (BT474)?
A: Its pIC50 is < 5.00.

Q: And the pIC50 (C32)?
A: Its pIC50 is < 5.00.

Q: What about the pIC50 (CCF-STTG1) of the same compound?
A: The pIC50 was 7.07.

Q: And the pIC50 (CFPAC-1)?
A: Its pIC50 is < 5.00.

Q: What about the pIC50 (Colo 205) of the same compound?
A: Its pIC50 is 5.02.

Q: And the pIC50 (Colo 320DM)?
A: The pIC50 was < 5.00.

Q: And the pIC50 (DK-MG)?
A: The pIC50 was 7.26.

Q: What about the pIC50 (DMS114) of the same compound?
A: Its pIC50 is < 5.00.

Q: What about the pIC50 (Daoy) of the same compound?
A: The pIC50 was < 5.00.

Q: And the pIC50 (Daudi)?
A: Its pIC50 is 6.88.

Q: And the pIC50 (Detroit 562)?
A: The pIC50 was 5.11.

Q: And the pIC50 (HCT-8)?
A: Its pIC50 is 7.29.

Q: What about the pIC50 (HEC-1-A) of the same compound?
A: Its pIC50 is < 5.00.

Q: What about the pIC50 (HPAF-II) of the same compound?
A: Its pIC50 is 5.24.

Q: What about the pIC50 (HS 746T) of the same compound?
A: The pIC50 was 5.23.

Q: What about the pIC50 (KLE) of the same compound?
A: The pIC50 was < 5.00.

Q: And the pIC50 (LNCaP)?
A: Its pIC50 is 7.19.

Q: What about the pIC50 (MC-IXC) of the same compound?
A: Its pIC50 is 5.06.

Q: And the pIC50 (MDA MB 468)?
A: Its pIC50 is 5.09.

Q: And the pIC50 (OCUG-1)?
A: The pIC50 was < 5.00.

Q: And the pIC50 (PC-3)?
A: The pIC50 was < 5.00.

Q: And the pIC50 (SCC-9)?
A: Its pIC50 is < 5.00.

Q: And the pIC50 (SNU-16)?
A: Its pIC50 is 5.00.

Q: And the pIC50 (SW-13)?
A: Its pIC50 is 5.07.

Q: What about the pIC50 (SW1783) of the same compound?
A: The pIC50 was < 5.00.

Q: And the pIC50 (SW962)?
A: Its pIC50 is < 5.00.

Q: And the pIC50 (SW982)?
A: The pIC50 was 7.68.

Q: And the pIC50 (T47D)?
A: Its pIC50 is 5.11.

Q: And the pIC50 (TCCSUP)?
A: The pIC50 was < 5.00.

Q: And the pIC50 (Thp1)?
A: Its pIC50 is < 5.00.

Q: And the pIC50 (Wi38)?
A: The pIC50 was 7.42.

Q: What about the pIC50 (YAPC) of the same compound?
A: Its pIC50 is < 5.00.
